Laboratory results: BindingDB's records for doi:10.1021/bi00180a024 (Medical University of South Carolina, 1994)

Target: T1, 5-hydroxytryptamine receptor 1A (Homo sapiens, UniProt P08908)
T1 sequence (P08908 whole entry): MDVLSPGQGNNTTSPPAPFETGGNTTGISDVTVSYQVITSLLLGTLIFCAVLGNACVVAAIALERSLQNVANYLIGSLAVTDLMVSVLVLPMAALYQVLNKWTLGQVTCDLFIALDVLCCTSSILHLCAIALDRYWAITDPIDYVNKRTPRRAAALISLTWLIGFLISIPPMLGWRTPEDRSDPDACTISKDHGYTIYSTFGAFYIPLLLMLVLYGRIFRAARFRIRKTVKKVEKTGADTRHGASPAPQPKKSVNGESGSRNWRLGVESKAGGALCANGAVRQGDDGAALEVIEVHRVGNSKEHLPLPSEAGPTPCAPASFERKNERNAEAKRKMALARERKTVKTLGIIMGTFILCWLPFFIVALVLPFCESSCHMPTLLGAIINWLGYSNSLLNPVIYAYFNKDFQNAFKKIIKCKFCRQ

O=C1c2ccccc2S(=O)(=O)N1CCCCN1CCN(c2ncccn2)CC1 [1,1-Dioxo-2-[4-(4-pyrimidin-2-yl-piperazin-1-yl)-butyl]-1,2-dihydro-1lambda*6*-benzo[d]isothiazol-3-one]
Ki: 130 nM
